Experimental data: patent US8445509B2, “Fused heterocyclic derivatives and use thereof” (Takeda Pharmaceutical Company Limited, priority 2008, dated 2013)

Experiments:
[1] = system: Human umbilical vein-derived vascular endothelial cells (HUVEC); assay: Vascular endothelial cell proliferation inhibitory test (VEGF-stimulated HUVEC); assay type: cell-based; settings: 120 h, 5 days of culture with VEGF
Protocol: Human umbilical vein-derived vascular endothelial cells (HUVEC purchased from KURABO […] LTD.) were cultured in an incubator at 37° C., 5% carbon dioxide in a vascular endothelial cell medium (Invitrogen) containing 3% bovine fetal serum and 2.5 ng/mL basic fibroblast growth factor. To be specific, HUVEC was suspended in a vascular endothelial cell medium containing the aforementioned 3% bovine fetal serum and plated on a 96 well flat bottom plate by 50 μL (3000 cells) each well. After culture overnight, various concentrations of the test substance and 120 ng/mL of vascular endothelial growth factor (VEGF) were dissolved in a vascular endothelial cell medium containing 3% bovine fetal serum and added to each well by 50 μL. After 5 days of culture, a Cell counting kit-8 reagent (DOJINDO LABORATORIES) was added to each well by 10 μL, and the mixture was reacted in an incubator at 37° C., 5% carbon dioxide for 2-3 hr. The absorbance at 450 nm was measured by a microtiter plate reader and the cell proliferation inhibitory activity was determined. Using the absorbance with addition of a test substance at each concentration and based on the nonlinear least-squares analysis using a logistic curve of SAS system NLIN procedure, the concentration of the test substance (IC50 value) necessary for showing 50% of the value obtained without addition of the test substance was calculated.

[2] = target: T1, Tie2 intracellular domain protein (Homo sapiens, UniProt Q02763); assay: TIE2 kinase inhibitory activity (AlphaScreen); assay type: biochemical
T1 construct: 50 ng/mL of Tie2 intracellular domain protein (Millipore); purchased Millipore
Protocol: A test compound dissolved in dimethyl sulfoxide (DMSO) was diluted with a buffer (50 mM Tris-HCl (pH 7.5), 5 mM MgCl2, 5 mM MnCl2, 2 mM dithiothreitol, 0.01% Tween-20). A buffer (10 μL) containing 50 ng/mL of Tie2 intracellular domain protein (Millipore) and 250 ng/ml, of biotin labeled polypeptide biotinyl-poly-Glu:Tyr (4:1) (CIS bio International) was added to the compound solution (5 μL). At 5 min from the mixing of the kinase enzyme, the compound and the biotin labeled polypeptide, a buffer (10 μL) containing 5 μM ATP was added, and the mixture was reacted at 25° C. for 10 min. The reaction was quenched by the addition of 25 μL of a stop solution (100 mM EDTA disodium salt, 62.5 mM HEPES buffer (pH 7.4), 250 mM NaCl, 0.1% bovine serum albumin, 10 μg/ml AlphaScreen assay streptavidin donor beads (Streptavidin Donor beads: PerkinElmer), 10 μg/ml, AlphaScreen assay anti-phosphotyrosine recognition antibody PT-66 binding acceptor beads (Anti-phosphotyrosine (PT-66) Acceptor beads: PerkinElmer)). The reaction solution was allowed to stand at 25° C. for 16 hrs, and the […] were counted using a plate reader (Fusion™ (PerkinElmer)). The kinase inhibitory rate (%) of the test compound was calculated by the following formula: Inhibitory rate (%)=(1−(count of test compound−blank)÷(control−blank))×100
(§1) The count of the solution reacted without addition of the compound was used as a “control”, and the count of the solution without the compound and ATP was used as a “blank”.

[3] = target: T2, VEGFR2 intracellular domain protein (Homo sapiens, UniProt P35968); assay: Vascular endothelial growth factor receptor 2 (VEGFR2) kinase inhibitory activity (AlphaScreen); assay type: biochemical
T2 construct: made in house; host or cells: SF-21 insect cells, recombinant baculovirus BAC-VEGFR2
Protocol: Human vascular endothelial growth factor receptor 2 (hereinafter to be referred to as VEGFR2) gene was cloned by PCR using cDNA Libraries Human Placenta (Clontech) as a template. […] The primer base sequence is shown below.
SF-21 cells were sown at 1×10^6 cells/mL to Sf-900II SFM medium (1 L, Invitrogen) containing 10% fetal bovine serum (trace), 50 mg/L Gentamicin (Invitrogen) and 0.1% Pluronic F-68 (Invitrogen), and shaking culture was performed using a 2 L volume Erlenmeyer flask at 27° C., 100 rpm. After culturing for 24 hrs, recombinant baculovirus BAC-VEGFR2 (13.4 mL) was added to the mixture, and the mixture was further cultured for 3 days. The culture medium was centrifuged at 2,000 rpm for 5 min to give virus-infected cells. The infected cells were washed with a phosphate buffered saline (Invitrogen), centrifuged under the same conditions, and the cells were preserved at −80° C. The cryopreserved cells were thawed in ice, suspended in buffer A (50 mM Tris buffer (30 mL, pH 7.4) containing 20% glycerol, 0.15 M NaCl) supplemented with Complete Protease Inhibitor (Boehringer), and ruptured 3 times with a Polytron homogenizer (Kinematica) at 20,000 rpm for 30 sec. The ruptured medium was clarified by centrifugation at 40,000 rpm for 30 min and filtered with a 0.45 μm filter. The filtrate was passed through a column packed with Anti-FLAG M2 Affinity Gel (4 mL, Sigma) at a flow rate of about 0.5 mL/min. The column was washed with buffer A, and eluted with buffer A containing 100 μg/mL of FLAG peptide. The eluate was concentrated with Vivaspin 20 (Vivascience) having a molecular weight cut off of 30K. The buffer of this concentrate was exchanged using NAP™ 25 column (Amersham Bioscience) equilibrated with buffer A. The fractions containing intracellular domain protein of VEGFR2 were collected, glycerol was added to the final concentration of 50% and cryopreserved at −80° C.
A test compound dissolved in dimethyl sulfoxide (DMSO) was diluted with a buffer (50 mM Tris-HCl (pH 7.5), 5 mM MgCl2, 5 mM MnCl2, 2 mM dithiothreitol, 0.01% Tween-20). To this compound solution (5 μL) was added a buffer (10 μL) containing 50 ng/mL of VEGFR2 intracellular domain protein and 250 ng/mL of biotin labeled polypeptide biotinyl-poly-Glu:Tyr (4:1) (CIS bio International). […] The reaction solution was allowed to stand at 25° C. for 16 hrs, and the wells were counted using a plate reader (Fusion™ (PerkinElmer)). The kinase inhibitory rate (%) of the test compound was calculated by the following formula: Inhibitory rate (%)=(1−(count of test compound−blank)÷(control−blank))×100
as §1

T1 sequence (Q02763 770-1124 limits assumed): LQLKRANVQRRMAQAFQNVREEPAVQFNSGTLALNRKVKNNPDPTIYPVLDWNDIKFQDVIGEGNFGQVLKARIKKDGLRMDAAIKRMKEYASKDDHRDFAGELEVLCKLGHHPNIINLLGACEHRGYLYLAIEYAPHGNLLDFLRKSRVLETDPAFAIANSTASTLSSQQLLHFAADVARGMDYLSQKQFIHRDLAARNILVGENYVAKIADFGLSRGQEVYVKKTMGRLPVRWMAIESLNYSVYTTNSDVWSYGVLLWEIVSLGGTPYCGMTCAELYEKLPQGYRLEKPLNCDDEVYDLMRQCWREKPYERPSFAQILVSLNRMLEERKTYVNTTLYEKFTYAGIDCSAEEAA
T2 sequence (P35968 786-1356 limits assumed): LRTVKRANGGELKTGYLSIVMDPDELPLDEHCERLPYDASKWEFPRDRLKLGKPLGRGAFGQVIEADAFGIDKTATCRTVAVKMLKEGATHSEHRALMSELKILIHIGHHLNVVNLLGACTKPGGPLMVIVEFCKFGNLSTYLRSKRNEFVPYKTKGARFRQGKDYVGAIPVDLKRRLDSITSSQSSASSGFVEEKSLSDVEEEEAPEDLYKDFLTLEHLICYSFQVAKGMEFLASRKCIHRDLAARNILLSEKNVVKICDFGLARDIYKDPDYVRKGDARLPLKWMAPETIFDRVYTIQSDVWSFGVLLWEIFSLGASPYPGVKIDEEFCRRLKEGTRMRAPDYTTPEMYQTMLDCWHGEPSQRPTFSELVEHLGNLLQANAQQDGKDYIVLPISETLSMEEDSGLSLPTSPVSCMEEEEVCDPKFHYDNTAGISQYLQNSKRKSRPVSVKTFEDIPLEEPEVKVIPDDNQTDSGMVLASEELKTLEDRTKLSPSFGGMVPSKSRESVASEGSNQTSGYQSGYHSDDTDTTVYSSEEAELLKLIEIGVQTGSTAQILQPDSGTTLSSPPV

Work on Cc1ccc(C(=O)Nc2ccc(Oc3ccc4nc(NC(=O)C5CC5)cn4c3)c(F)c2)[n+]([O-])c1-c1ccc(F)cc1 [Example 29, N-[4-({2-[(cyclopropylcarbonyl)amino]imidazo[1,2-a]pyridin-6-yl}oxy)-3-fluorophenyl]-6-(4-fluorophenyl)-5-methylpyridine-2-carboxamide 1-oxide] yielded an IC50 [1] of no more than 2 µM, an IC50 [2] of no more than 1 µM and an IC50 [3] of no more than 1 µM.
Cc1ccc(C(=O)Nc2ccc(Oc3ccc4nc(NC(=O)C5CC5)cn4c3)c(F)c2)c(=O)n1-c1ccc(F)cc1.Cl [Example 32, N-[4-({2-[(cyclopropylcarbonyl)amino]imidazo[1,2-a]pyridin-6-yl}oxy)-3-fluorophenyl]-1-(4-fluorophenyl)-6-methyl-2-oxo-1,2-dihydropyridine-3-carboxamide hydrochloride] showed an IC50 [1] of no more than 2 µM and an IC50 [3] of no more than 1 µM.
For Cc1cc(C)n(-c2ccc(F)cc2)c(=O)c1C(=O)Nc1ccc(Oc2ccc3nc(NC(=O)C4CC4)cn3c2)c(F)c1 [Example 82, N-[4-({2-[(cyclopropylcarbonyl)amino]imidazo[1,2-a]pyridin-6-yl}oxy)-3-fluorophenyl]-1-(4-fluorophenyl)-4,6-dimethyl-2-oxo-1,2-dihydropyridine-3-carboxamide], the IC50 [1] was no more than 2 µM, the IC50 [2] was no more than 1 µM and the IC50 [3] was no more than 1 µM.
In the case of O=C(Nc1cn2cc(Oc3ccc(NC(=O)N4CCN(c5ccc(F)cc5)C4=O)cc3F)ccc2n1)C1CC1 [Example 53, N-[4-({2-[(cyclopropylcarbonyl)amino]imidazo[1,2-a]pyridin-6-yl}oxy)-3-sfluorophenyl]-3-(4-fluorophenyl)-2-oxoimidazolidine-1-carboxamide], the IC50 [1] is reported as no more than 2 µM, the IC50 [2] is reported as no more than 1 µM and the inhibition at 1 µM ([2]; 1 μM test compound, read-out: inhibitory rate (%) at 1 μM) is reported as no less than 50%. It also gave an IC50 [3] of no more than 1 µM.
With Cc1ccc(C(=O)Nc2ccc(Oc3ccc4nc(NC(=O)C5CC5)cn4c3)cc2)[n+]([O-])c1-c1ccc(F)cc1 [Example 72, N-[4-({2-[(cyclopropylcarbonyl)amino]imidazo[1,2-a]pyridin-6-yl}oxy)phenyl]-6-(4-fluorophenyl)-5-methylpyridine-2-carboxamide 1-oxide] the IC50 [1] was no more than 2 µM, the IC50 [2] was no more than 1 µM and the IC50 [3] was no more than 1 µM.
Cc1c(C(=O)Nc2ccc(Oc3ccc4nc(NC(=O)C5CC5)cn4c3)c(F)c2)c(=O)n(-c2ccc(F)cc2)n1C [Example 77, N-[4-({2-[(cyclopropylcarbonyl)amino]imidazo[1,2-a]pyridin-6-yl}oxy)-3-fluorophenyl]-2-(4-fluorophenyl)-1,5-dimethyl-3-oxo-2,3-dihydro-1H-pyrazole-4-carboxamide] was tested, and the IC50 [1] was no more than 2 µM, the IC50 [2] was no more than 1 µM and the IC50 [3] was no more than 1 µM.
With Cc1ccc(C(=O)Nc2ccc(Oc3ccc4nc(NC(=O)C5CC5)cn4c3)c(F)c2)c(=O)n1-c1cccc(F)c1 [Example 75, N-[4-({2-[(cyclopropylcarbonyl)amino]imidazo[1,2-a]pyridin-6-yl}oxy)-3-fluorophenyl]-1-(3-fluorophenyl)-6-methyl-2-oxo-1,2-dihydropyridine-3-carboxamide] the IC50 [1] was no more than 2 µM, the IC50 [2] was no more than 1 µM and the IC50 [3] was no more than 1 µM.
Molecule CC1CCN(C(=O)Nc2ccc(Oc3ccc4nc(NC(=O)C5CC5)cn4c3)c(F)c2)C(=O)N1c1ccc(F)cc1 (stereo not drawn) [Example 80, N-[4-({2-[(cyclopropylcarbonyl)amino]imidazo[1,2-a]pyridin-6-yl}oxy)-3-fluorophenyl]-3-(4-fluorophenyl)-4-methyl-2-oxotetrahydropyrimidine-1(2H)-carboxamide] has an IC50 [1] of no more than 2 µM, an IC50 [2] of no more than 1 µM and an IC50 [3] of no more than 1 µM.
With Cc1ccc(C(=O)Nc2ccc(Oc3ccn4nc(NC(=O)C5CC5)nc4c3)c(F)c2)c(=O)n1-c1ccc(F)cc1 [Example 76, N-[4-({2-[(cyclopropylcarbonyl)amino][1,2,4]triazolo[1,5-a]pyridine-7-yl}oxy)-3-fluorophenyl]-1-(4-fluorophenyl)-6-methyl-2-oxo-1,2-dihydropyridine-3-carboxamide] the IC50 [1] was no more than 2 µM, the IC50 [2] was no more than 1 µM and the IC50 [3] was no more than 1 µM.
